Each structure is given as a SMILES string.

The target of this assay is GSK3β (Homo sapiens, UniProt P49841). Briefly: Inhibitory activity against GSK3β (33P-ATP phosphorylation of prephosphorylated GS1 peptide, two protocols). The assay is classed as biochemical. As to conditions: protocol 1 or 2 not specified. The method, then: Inhibitory Activity of the Medicament of the Present Invention Against GSK3β
Two different protocols can be used.
In a first protocol: 7.5 μM of prephosphorylated GS1 peptide and 10 μM ATP (containing 300,000 cpm of ^33P-ATP) were incubated in 25 mM Tris-HCl, pH 7.5, 0.6 mM DTT, 6 mM MgCl2, 0.6 mM EGTA, 0.05 mg/ml BSA buffer for 1 hour at room temperature in the presence of GSK3beta (total reaction volume: 100 microliters).
In a second protocol: 4.1 μM of prephosphorylated GS1 peptide and 42 μM ATP (containing 260,000 cpm ^33P-ATP) were incubated in 80 mM Mes-NaOH, pH 6.5, 1 mM Mg acetate, 0.5 mM EGTA, 5 mM 2-mercaptoethanol, 0.02% Tween 20, 10% glycerol buffer for 2 hours at room temperature in the presence of GSK3beta. Inhibitors were solubilized in DMSO (final solvent concentration in the reaction medium, 1%).
The reaction was stopped with 100 microliters of a solution made of 25 g polyphosphoric acid (85% P2O5), 126 ml 85% H3PO4, H2O to 500 ml and then diluted to 1:100 before use. An aliquot of the reaction mixture was then transferred to Whatman P81 cation exchange filters and rinsed with the solution described above. Incorporated ^33P radioactivity was determined by liquid scintillation spectrometry.
The phosphorylated GS-1 peptide had the following sequence: NH2-[…](P)EDEE-COOH. SEQ ID NO: 1 (Woodgett, J. R. (1989) Analytical Biochemistry 180, 237-241. […]

Sequence of GSK3β (P49841 whole entry): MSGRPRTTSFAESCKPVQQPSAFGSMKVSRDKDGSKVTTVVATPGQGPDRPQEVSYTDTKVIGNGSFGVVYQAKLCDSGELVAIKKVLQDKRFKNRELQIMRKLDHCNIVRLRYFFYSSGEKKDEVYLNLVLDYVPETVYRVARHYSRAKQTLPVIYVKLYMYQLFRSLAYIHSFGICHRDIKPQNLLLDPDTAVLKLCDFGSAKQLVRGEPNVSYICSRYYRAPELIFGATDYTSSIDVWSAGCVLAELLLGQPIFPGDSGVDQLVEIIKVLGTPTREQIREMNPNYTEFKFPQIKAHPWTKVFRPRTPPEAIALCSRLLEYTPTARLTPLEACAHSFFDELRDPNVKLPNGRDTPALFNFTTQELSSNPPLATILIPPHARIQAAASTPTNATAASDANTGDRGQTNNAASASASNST

Usually IC50 stands for the midpoint of a concentration-inhibition curve. Lower therefore signals higher potency. Compound `COc1cc(Cl)ccc1C(=O)NCCc1nc(-c2ccncn2)cc(=O)n1C` [No. 1] gave an IC50 of 0.085 µM.

(Values after US8598187B2, “Arylamide pyrimidone compounds” (Sanofi, priority 2007, dated 2013).)
